System: T1, catechol 1,2-dioxygenase (C12O) from PcUFB2; identified by ES-MS as homogentisate 1,2-dioxygenase (H12D)
T1 construct: gene hmgA; native purification from UFB2 cells grown on phenol (ANX anion exchange, Sephacryl HR100); 35 kDa on SDS-PAGE
Assay: UV spectrophotometry, cis,cis-muconic acid at […] nm; Lineweaver-Burk / Michaelis-Menten fit
Type: biochemical, Pseudomonas chlororaphis
Conditions: 50 mM sodium phosphate pH 8, 30 °C, 30 min, 0-500 µM catechol

Question: With Oc1ccccc1O [catechol] as the compound, how does the Km read?
Answer: Its Km is 35.8 µM.

From publication PMC6337169, “Catechol 1,2-Dioxygenase is an Analogue of Homogentisate 1,2-Dioxygenase in Pseudomonas chlororaphis Strain UFB2” (International Journal of Molecular Sciences, 2018)
